Reference: ChEMBL document CHEMBL1201862, “PubChem BioAssay data set” (2004)
Activity calls are given as the source filed them. Cut-off read from the data, not from the text of the source, for most assays here: actives have a measured EC50 and inactives only a lower limit.

Experiments:
[1] = biological target: ATP-dependent molecular chaperone HSP82 (Candida albicans (strain WO-1) (Yeast), UniProt C4YTQ8); assay: steroid-induced GRE reporter decrease in yeast – S. cerevisiae, luminescence, Hsp90 inhibitor project, dose response (AID 2400); format: functional, cell-based;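 note: beta-galactosidase luminescence from glucocorticoid response element reporter as proxy for Hsp90 function; inhibitor potency where signal loss means Hsp90 inhibition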
ATP-dependent molecular chaperone HSP82, sequence (C4YTQ8 whole entry): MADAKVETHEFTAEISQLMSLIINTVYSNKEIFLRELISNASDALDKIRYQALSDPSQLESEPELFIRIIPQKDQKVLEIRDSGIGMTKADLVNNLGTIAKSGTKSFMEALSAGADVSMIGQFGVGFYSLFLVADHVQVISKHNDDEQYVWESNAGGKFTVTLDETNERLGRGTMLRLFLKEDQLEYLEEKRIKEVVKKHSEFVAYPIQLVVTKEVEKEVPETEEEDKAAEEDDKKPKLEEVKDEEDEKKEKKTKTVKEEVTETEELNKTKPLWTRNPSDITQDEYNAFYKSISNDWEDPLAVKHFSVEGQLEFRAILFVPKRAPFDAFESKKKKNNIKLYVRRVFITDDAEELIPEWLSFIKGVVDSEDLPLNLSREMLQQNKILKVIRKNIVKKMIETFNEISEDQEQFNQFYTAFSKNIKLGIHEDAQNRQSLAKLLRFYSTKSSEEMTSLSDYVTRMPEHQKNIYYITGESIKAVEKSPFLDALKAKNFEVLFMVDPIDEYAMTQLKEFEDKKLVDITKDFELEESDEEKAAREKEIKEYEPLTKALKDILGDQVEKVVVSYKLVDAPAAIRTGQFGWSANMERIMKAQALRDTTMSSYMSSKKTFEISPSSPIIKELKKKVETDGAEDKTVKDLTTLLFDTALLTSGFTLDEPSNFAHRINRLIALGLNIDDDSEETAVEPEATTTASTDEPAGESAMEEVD

[2] = biological target: T1, Serine/threonine-protein phosphatase (Candida dubliniensis (strain CD36 / CBS 7987 / NCPF 3949 / NRRLY-17841) (Yeast), UniProt B9W6M3); assay: blockers of CaCl2-induced CDRE-lacZ signaling – S. cerevisiae, luminescence, secondary, dose response (AID 2388); format: functional, cell-based;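 note: yeast reporter cells carrying a calcineurin-responsive lacZ construct stimulated with calcium chloride; luminescent beta-galactosidase reporter signal in whole cells rather than isolated phosphatase activity; potency for inhibition where a drop in reporter signal means calcineurin blockade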
T1 sequence (B9W6M3 whole entry): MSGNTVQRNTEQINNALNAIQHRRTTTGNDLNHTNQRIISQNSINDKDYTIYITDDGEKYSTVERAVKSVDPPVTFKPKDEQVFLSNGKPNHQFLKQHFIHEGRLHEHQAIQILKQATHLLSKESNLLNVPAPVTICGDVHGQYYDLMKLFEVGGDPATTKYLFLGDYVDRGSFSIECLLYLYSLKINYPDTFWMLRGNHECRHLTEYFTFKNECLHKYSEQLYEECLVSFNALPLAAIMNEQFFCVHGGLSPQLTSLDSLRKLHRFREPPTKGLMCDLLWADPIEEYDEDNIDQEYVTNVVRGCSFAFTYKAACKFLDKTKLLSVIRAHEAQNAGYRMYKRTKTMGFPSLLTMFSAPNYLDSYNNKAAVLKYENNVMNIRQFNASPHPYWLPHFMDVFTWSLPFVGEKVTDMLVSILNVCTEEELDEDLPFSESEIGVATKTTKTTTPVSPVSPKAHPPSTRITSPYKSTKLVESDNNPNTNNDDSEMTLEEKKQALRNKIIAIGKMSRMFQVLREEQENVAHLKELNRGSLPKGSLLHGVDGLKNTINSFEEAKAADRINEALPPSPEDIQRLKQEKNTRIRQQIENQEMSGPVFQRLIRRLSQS

[3] = NIH-3T3 fibroblast cytotoxicity, dose response, cytotoxicity control, cell-based, fluorescence, Alamar Blue, secondary assay (AID 2327); format: functional;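 note: NIH-3T3 mouse fibroblasts cultured with fluconazole at 8 µg/mL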
[4] = fluconazole-exposed Candida albicans growth modulators – fluorescence, retest, confirmation (AID 2467); format: functional, cell-based
[5] = Counterscreen for AddAB inhibitors: absorbance-based bacterial cell-based high throughput dose response assay for inhibitors of bacterial viability. [Related pubchem assays (depositor defined):AID435030, AID449728, AID449731, AID488942, AID488955, AID488956]; format: functional

Row | SMILES | EC50 [1] | EC50 [2] | EC50 [3] | EC50 [4] | IC50 [5]
1 | CCCCC(=O)NC(c1ccco1)c1cc(Cl)c2cccnc2c1O (stereo not given) | > 160 µM (inactive) | > 180 µM (inactive) | 25 µM (active) | 0.537 µM (active) | > 119 µM (inactive)
2 | CCCCC(=O)NC(c1ccc(Cl)cc1)c1ccc2cccnc2c1O (stereo not given) | 29.1 µM (active) | 24.8 µM (active) | 16.6 µM (active) | 0.413 µM (active) | > 119 µM (inactive)
3 | O=C(N/N=C/c1ccccc1O)/C(O)=C\C1=NC2(CCCC2)Cc2ccccc21 | 22.1 µM (active) | > 180 µM (inactive) | 10.5 µM (active) | 0.663 µM (active) | > 119 µM (inactive)
